The values below come from patent US8946261B2, “Substituted 1, 2, 3, 4-tetrahydroquinolin-7-yl carbamates as acetylcholinesterase inhibitors for treatment of Alzheimer's disease” (priority 2011, dated 2015).

Structures are written as SMILES.

This experiment has as its target T1, Acetylcholinesterase (AChE) (Mus musculus, UniProt P21836).
T1 construct: A 10% (w/v) homogenate of brain was prepared; from tissue; host or cells: whole brain of adult Swiss albino mice; supernatant (100,000 g) of the 1% Triton X-100 treated homogenate
T1 sequence (P21836 32-614): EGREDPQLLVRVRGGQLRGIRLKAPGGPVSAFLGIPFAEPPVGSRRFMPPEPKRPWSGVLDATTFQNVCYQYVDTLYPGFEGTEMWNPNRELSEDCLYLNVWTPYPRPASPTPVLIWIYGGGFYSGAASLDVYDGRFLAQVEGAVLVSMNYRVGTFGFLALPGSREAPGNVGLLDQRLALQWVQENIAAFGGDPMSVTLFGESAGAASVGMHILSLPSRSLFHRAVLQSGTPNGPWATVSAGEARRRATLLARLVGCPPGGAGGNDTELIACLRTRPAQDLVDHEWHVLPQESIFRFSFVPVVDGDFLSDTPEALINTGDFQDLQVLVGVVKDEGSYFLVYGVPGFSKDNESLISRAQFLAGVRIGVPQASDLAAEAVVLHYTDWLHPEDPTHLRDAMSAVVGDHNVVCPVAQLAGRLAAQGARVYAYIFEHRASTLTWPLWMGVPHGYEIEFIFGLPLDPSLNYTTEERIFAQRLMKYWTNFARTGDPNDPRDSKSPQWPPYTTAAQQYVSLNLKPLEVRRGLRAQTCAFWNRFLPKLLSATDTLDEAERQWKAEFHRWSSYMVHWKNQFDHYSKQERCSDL
The experiment can be described thus: Acetylcholinesterase (AChE) assay in brain (in vitro), Ellman method. In kind it is biochemical, Swiss albino mice. Conditions: for inhibition at 10 µM / inhibition at 100 µM: read-out: % Inhibition of AChE enzyme. On the procedure:
Acetylcholinesterase (AChE) Assay in Brain (In Vitro)
The mice were perfused under mild ether anesthesia through heart with ice cooled normal saline (0.9% NaCl) to remove blood-born cholinesterase from the brain. After perfusion the whole brain was taken out. A 10% (w/v) homogenate of brain was prepared first by homogenizing in an Ultra-Turrax T25 homogenizer at a speed of 9500 rpm thrice giving intervals for few seconds in between the runs, with sodium phosphate buffer (0.03 M, pH-7)).
The brain homogenate in volume of 500 μl was mixed with 1% Triton X-100 (1% w/v in 0.03M sodium phosphate buffer, pH-7) and centrifuged at 100,000 g at 4° C. in a Beckman Ultracentrifuge (LE 80, USA), using a fixed angle rotor (80 ti) for 60 min. Supernatant was collected and stored at 4° C. for acetylcholinesterase estimation.
The assay for each sample was run in triplicate and each experiment was performed twice.
The specific activity of AChE is expressed in μM/min/mg of protein.
The test substance (dissolved in ethanol) was incubated with enzyme source in different concentrations ([…]) for 30 min at 37° C. prior to obtain kinetic profile of AChE activity. […] The AChE inhibitory activity was calculated on the basis of % decrease in AChE activity from control values i.e. AChE activity without incubation with any standard or test drug.
The results are expressed as mean±S.E.M. Statistical analysis of passive avoidance values were performed by t-test. The IC50 value was calculated by non linear regression method using GraphPad Prism software.

In the case of `Cc1ccccc1NC(=O)Oc1ccc2c(c1)N(Cc1ccccc1)CCC2` [Compound 8a, 1-benzyl-1,2,3,4-tetrahydroquinolin-7-yl 2-methylphenylcarbamate], the IC50 came out at 13 ± 0.66 µM, the inhibition at 10 µM was found to be 44.1% and the inhibition at 100 µM is 90.4%.

Turning to `C#CCN1CCCc2ccc(OC(=O)Nc3ccc(Cl)cc3)cc21` [Compound 10f, 1-(prop-2-ynyl)-1,2,3,4-tetrahydroquinolin-7-yl 4-chlorophenylcarbamate], the IC50 was determined as 756 ± 208 µM, the inhibition at 10 µM amounted to 25.4% and the inhibition at 100 µM turned out to be 30.9%.

Consider `C#CCN1CCCc2ccc(OC(=O)Nc3c(C)cccc3C(C)C)cc21` [Compound 10d, 1-(prop-2-ynyl)-1,2,3,4-tetrahydroquinolin-7-yl 2-isopropyl-6-methylphenylcarbamate], for which the IC50 is above 100 µM, the inhibition at 10 µM worked out at 17.9% and the inhibition at 100 µM worked out at 22.5%.

On to `Cc1ccc(NC(=O)Oc2ccc3c(c2)N(Cc2ccccc2)CCC3)cc1` [Compound 8b, 1-benzyl-1,2,3,4-tetrahydroquinolin-7-yl 4-methylphenylcarbamate], for which the IC50 amounted to 354 ± 21.5 µM, the inhibition at 10 µM turned out to be 5.41% and the inhibition at 100 µM was determined as 25.1%.

Take `COc1ccc(NC(=O)Oc2ccc3c(c2)N(Cc2ccccc2)CCC3)cc1` [Compound 8j, 1-benzyl-1,2,3,4-tetrahydroquinolin-7-yl 4-methoxyphenylcarbamate]: the IC50 was above 100 µM, the inhibition at 10 µM came out at 1.41% and the inhibition at 100 µM worked out at 3.59%.

Take `O=C(Nc1ccccc1F)Oc1ccc2c(c1)NCCC2` [Compound 9b, 1,2,3,4-tetrahydroquinolin-7-yl 2-fluorophenylcarbamate]: it took 76.3 ± 0.9 µM to reach half-maximal inhibition (IC50), the inhibition at 10 µM came out at 10.5% and the inhibition at 100 µM came to 55.7%.

Regarding `Cc1ccc(NC(=O)Oc2ccc3c(c2)NCCC3)cc1` [Compound 9a, 1,2,3,4-tetrahydroquinolin-7-yl 4-methylphenylcarbamate], the IC50 was above 100 µM, the inhibition at 10 µM turned out to be 0.01% and the inhibition at 100 µM worked out at 1.45%.

Consider `O=C(Nc1ccc(Cl)cc1)Oc1ccc2c(c1)NCCC2` [Compound 9d, 1,2,3,4-tetrahydroquinolin-7-yl 4-chlorophenylcarbamate], for which the IC50 is 126 ± 4.17 µM, the inhibition at 10 µM came to 1.86% and the inhibition at 100 µM was 38.9%.

Turning to `O=C(Nc1ccc(Cl)cc1)Oc1ccc2c(c1)N(Cc1ccccc1)CCC2` [Compound 8f, 1-benzyl-1,2,3,4-tetrahydroquinolin-7-yl 4-chlorophenylcarbamate], the IC50 was above 100 µM, the inhibition at 10 µM is 2.1% and the inhibition at 100 µM stood at 12.5%.

Turning to `C#CCN1CCCc2ccc(OC(=O)Nc3ccccc3Br)cc21` [Compound 10c, 1-(prop-2-ynyl)-1,2,3,4-tetrahydroquinolin-7-yl 2-bromophenylcarbamate], the IC50 is 2.82 ± 0.04 µM, the inhibition at 10 µM amounted to 71.7% and the inhibition at 100 µM was 87.3%. Moreover, the “AChE inhibitory activity compared to rivastigmine” value (comparison with rivastigmine) is given as “almost equal”.

For the compound `CN1CCCc2ccc(OC(=O)Nc3ccccc3F)cc21` [Compound 8l, 1-methyl-1,2,3,4-tetrahydroquinolin-7-yl 2-fluorophenylcarbamate], half-maximal inhibition (IC50) was put at 55.9 ± 2.97 µM, the inhibition at 10 µM was 32.8% and the inhibition at 100 µM was determined as 58.8%.

As to `COc1ccccc1NC(=O)Oc1ccc2c(c1)N(Cc1ccccc1)CCC2` [Compound 8i, 1-benzyl-1,2,3,4-tetrahydroquinolin-7-yl 2-methoxyphenylcarbamate], the IC50 came out at 298 ± 12.7 µM, the inhibition at 10 µM came to 2.5% and the inhibition at 100 µM was determined as 24.1%.

For `O=C(Nc1ccccc1F)Oc1ccc2c(c1)N(Cc1ccccc1)CCC2` [Compound 8c, 1-benzyl-1,2,3,4-tetrahydroquinolin-7-yl 2-fluorophenylcarbamate], the IC50 was above 100 µM, the inhibition at 10 µM was found to be 9.87% and the inhibition at 100 µM stood at 19.5%.

By IC50 is commonly meant the point on the concentration scale where inhibition reaches its midpoint. Read a high IC50 as lower potency. The inhibition is how much of the control response was suppressed.
